Here are results for 19 compounds from patent US9422309B2, “3-O-heteroaryl-ingenol” (LEO LABORATORIES LIMITED, priority 2012, dated 2016).

SMILES strings stand for the structures. Where only a bound is given, the exact number is not on record here.

Holding throughout (assay type): cell-based
Experiment [1] concerns Primary human epidermal keratinocytes, HeKa. Nature of the experiment: HeKa cytokine release (IL-8). As to conditions: 6 h at 37° C., normalised to 1.5×10^−7 M PEP0005, read-out: HeKa cytokine release (IL-8) Rel EC50 range. On the procedure:
Primary human epidermal keratinocytes, HeKa, are seeded (10.000 cells/well) in 96-well plates the day before the assay. Test compounds are diluted in DMSO (dimethyl sulfoxide) and further diluted in assay medium and pipetted into wells of 96 well-plates containing HeKa cells. The plates are incubated for 6 h at 37° C. in humidified air with 5% CO2. Plates are centrifuged briefly to spin down cells at 4° C., the supernatant is removed and analysed by Meso Scale Discovery (MSD) 4-spot cytokine assay (Pro-inflammatory II Ultra Sensitive kit, MSD, MD, USA). The MSD assay employs a sandwich immunoassay format where capture antibodies are coated in a patterned array on the bottom of the wells of a 4-Spot-Multi-MSD plate. Standard samples are incubated in the MULTI-SPOT plates as well, and the cytokine (IL-8) binds to its corresponding capture antibody spot. The cytokine level is quantitated on a SECTOR™ Imager using a cytokine-specific Detection Antibody labelled with MSD SULFO-TAG™ reagent.
Test compound titration curves are fitted to a four-parameter sigmoidal curve after normalizing the effect of the test compound to the effect of the positive control (1.5×10^−7 M PEP0005). Rel EC50 denotes the concentration of test compound producing an effect that is midway between the fitted top and bottom.

The subject of a further experiment is HeLa cells. Nature of the experiment: Necrosis assay. The settings on record: Homo sapiens, 0.5 h, 30 min at 37° C., PrestoBlue, normalised to 4 10^−4 M PEP0005/ingenol mebutate, read-out: HeLa necrosis EC50 range. As to the method: HeLa cells (ATCC CCL-002) were grown in minimal essential medium (Invitrogen catalog no. 42360) containing 10% fetal bovine serum, 100 IU/ml penicillin and 100 μg/ml streptomycin. 4,000-6,000 cells were seeded into 96-well black ViewPlates-plates, clear bottom, (Perkin Elmer) in 100 μl medium and incubated overnight. Compounds were dissolved and pre-diluted in DMSO in 96-well polypropylene plates (Greiner) in a concentration range of 15 μM to 600 μM. At the time of the experiment cell plates were placed on heating blocks at 37° C., medium was removed and 40 μl fresh, pre-warmed medium was added per well. Cells were incubated for 15 min before addition of compounds. In parallel, 3 μl of compounds were diluted with 197 μl growth medium on a Tecan freedom-EVO pipetting station using 250 μl/s pipetting speed, in order to ensure effective mixing of the highly concentrated compound solutions with the aqueous phase.
These pre-dilution plates were then equilibrated on heating blocks at 37° C. for 10 min. 80 μl pre-diluted compound were transferred manually to the corresponding wells containing HeLa cells yielding compound concentrations of 10 μM to 400 μM. Control conditions were 1% DMSO in growth medium (100% viability) and 400 μM ingenol mebutate in growth medium (0% viability). Plates were incubated on the heating blocks at 37° C. for 30 min. At the end of the incubation 10 μl PrestoBlue reagent (Invitrogen) were added to each well, plates were sealed with black seal, followed by incubation at 37° C. for 10 min with gentle shaking (150 rpm). Subsequently, plates were placed at room temperature for 20-30 min. Plates were read immediately after on an Envision Fluorescence reader (Perkin Elmer) with excitation at 535 nm and emission at 630 nm. Test compound titration curves were fitted to a four-parameter sigmoidal curve after normalizing the effect of the test compound to the effect of the positive control (4 10^−4 M PEP0005/ingenol mebutate). Abs EC50 denotes the concentration of test compound producing 50% effect.

The subject of experiment [2] is PMN's (polymorphonuclear leukocytes). Nature of the experiment: Neutrophil oxidative burst. As to conditions: Leukocyte, 40 min; 40 min incubation at rt; normalised to 5×10^−7 M PEP0005; read-out: Neutrophil oxidative burst Rel EC50 range. As to the method:
PMN's (polymorphonuclear leukocytes) are isolated and purified from fresh buffy coats by sequential sedimentation, density centrifugation and lysis of contaminating erythrocytes. In brief, buffy coats are incubated with 2% methocel for 30-45 min to differentially sediment red blood cells. The leukocyte-rich supernatant is transferred to lymphoprep tubes to remove mononuclear cells by density centrifugation (400×g, 30 min). The pellet is resuspended and any remaining erythrocytes lysed using 0.2% NaCl for 30 sec before restoring isotonicity by the addition of 1.2% NaCl. This step is repeated until the cell pellet appears relatively free of red blood cells. Cells are resuspended in DPBS (Dulbecco's Phosphate Buffered Saline) (w.o. Ca^2+, Mg^2+) and the concentration adjusted to 1.4×10^6 cells/ml in HBSS (Hanks Balanced Salt solution) (w Ca^2+, Mg^2+) containing 0.1% BSA (Bovine Serum Albumin) and 5 mM glucose just prior to assay initiation. Titrated reference and test compounds are pre-mixed with HE (Hydroethidine) (10 μM final assay concentration) before addition to 96-well plates containing 2.5×10^5 cells. Following 40 min incubation at rt, changes in the respiratory burst is estimated by measuring fluorescence at 579 nm (excitation: 485 nm) using an Envision plate reader.
Test compound titration curves are fitted to a four-parameter sigmoidal curve after normalizing the effect of the test compound to the effect of the positive control (5×10^−7 M PEP0005). Rel EC50 denotes the concentration of test compound producing an effect that is midway between the fitted top and bottom. Abs EC50 is the concentration of test compound that provokes a response corresponding to 50% of the maximal effect associated with the positive control (5×10^−7 M PEP0005).

As to `CC1=C[C@]23C(=O)[C@@H](C=C(CO)[C@@H](O)[C@]2(O)[C@H]1Oc1ncnc(Cl)c1C)[C@H]1[C@@H](C[C@H]3C)C1(C)C` [Compound 101, 3-O-(6-Chloro-5-methyl-pyrimidin-4-yl)-ingenol], the 50% effective concentration (EC50) is under 20 nM in experiment [1], under 150 µM in the experiment on HeLa cells and 20 to 100 nM in experiment [2].
With `CC1=C[C@]23C(=O)[C@@H](C=C(CO)[C@@H](O)[C@]2(O)[C@H]1Oc1noc2ccccc12)[C@H]1[C@@H](C[C@H]3C)C1(C)C` [Compound 102, 3-O-(1,2-Benzoxazol-3-yl)-ingenol], the values for the 50% effective concentration (EC50) (in experiment [1]; in the experiment with HeLa cells; in experiment [2]) were under 20 nM, 150 to 350 µM and under 20 nM, respectively.
Regarding `CC1=C[C@]23C(=O)[C@@H](C=C(CO)[C@@H](O)[C@]2(O)[C@H]1Oc1ccc(C(F)(F)F)cn1)[C@H]1[C@@H](C[C@H]3C)C1(C)C` [Compound 103, 3-O-(5-(Trifluoromethyl)-2-pyridyl)-ingenol], the concentration giving a half-maximal response (EC50) in experiment [1] was 20 to 100 nM; with HeLa cells, 150 to 350 µM.
Consider `C=CCc1c(Cl)ncnc1O[C@H]1C(C)=C[C@]23C(=O)[C@@H](C=C(CO)[C@@H](O)[C@]12O)[C@H]1[C@@H](C[C@H]3C)C1(C)C` [Compound 104, 3-O-(5-Allyl-6-chloro-pyrimidin-4-yl)-ingenol], for which the concentration giving a half-maximal response (EC50) in experiment [1] is under 20 nM; with HeLa cells, under 150 µM; in experiment [2], 20 to 100 nM.
For `CC1=C[C@]23C(=O)[C@@H](C=C(CO)[C@@H](O)[C@]2(O)[C@H]1Oc1ncccc1C=O)[C@H]1[C@@H](C[C@H]3C)C1(C)C` [Compound 105, 3-O-(3-Formyl-2-pyridyl)-ingenol] the same measures were at least 100 nM, at least 350 µM and at least 100 nM.
The corresponding values for `CC1=C[C@]23C(=O)[C@@H](C=C(CO)[C@@H](O)[C@]2(O)[C@H]1Oc1ccccn1)[C@H]1[C@@H](C[C@H]3C)C1(C)C` [Compound 106, 3-O-(2-Pyridyl)-ingenol] are 20 to 100 nM, at least 350 µM and at least 100 nM.
The corresponding values for `CC1=C[C@]23C(=O)[C@@H](C=C(CO)[C@@H](O)[C@]2(O)[C@H]1Oc1nn(C)c2ccccc12)[C@H]1[C@@H](C[C@H]3C)C1(C)C` [Compound 107, 3-O-(1-Methylindazol-3-yl)-ingenol] are at least 100 nM, 150 to 350 µM and at least 100 nM.
Turning to `CC1=C[C@]23C(=O)[C@@H](C=C(CO)[C@@H](O)[C@]2(O)[C@H]1Oc1nccn1C)[C@H]1[C@@H](C[C@H]3C)C1(C)C` [Compound 108, 3-O-(1-Methylimidazol-2-yl)-ingenol], the half-maximal effective concentration (EC50) in experiment [1] is at least 100 nM; with HeLa cells it was at least 350 µM; in experiment [2] it was at least 100 nM.
`C=CCn1ccnc1O[C@H]1C(C)=C[C@]23C(=O)[C@@H](C=C(CO)[C@@H](O)[C@]12O)[C@H]1[C@@H](C[C@H]3C)C1(C)C` [Compound 109, 3-O-(1-Allylimidazol-2-yl)-ingenol]: the EC50 in the experiment on HeLa cells is at least 350 µM; in experiment [2], 20 to 100 nM.
`CC1=C[C@]23C(=O)[C@@H](C=C(CO)[C@@H](O)[C@]2(O)[C@H]1Oc1ncc(C(F)(F)F)cn1)[C@H]1[C@@H](C[C@H]3C)C1(C)C` [Compound 110, 3-O-(5-(Trifluoromethyl)-pyrimidin-2-yl)-ingenol]: the EC50 was at least 100 nM in experiment [1], at least 350 µM in the experiment on HeLa cells and at least 100 nM in experiment [2].
For the compound `CC1=C[C@]23C(=O)[C@@H](C=C(CO)[C@@H](O)[C@]2(O)[C@H]1Oc1cc(Br)ccn1)[C@H]1[C@@H](C[C@H]3C)C1(C)C` [Compound 111, 3-O-(4-Bromo-2-pyridyl)-ingenol], the 50% effective concentration (EC50) in experiment [1] was 20 to 100 nM; with HeLa cells it was 150 to 350 µM; in experiment [2] it was 20 to 100 nM.
As to `CC1=C[C@]23C(=O)[C@@H](C=C(CO)[C@@H](O)[C@]2(O)[C@H]1Oc1ncccc1F)[C@H]1[C@@H](C[C@H]3C)C1(C)C` [Compound 112, 3-O-(3-Fluoro-2-pyridyl)-ingenol], the EC50 in experiment [1] was at least 100 nM; with HeLa cells it was at least 350 µM; in experiment [2], 20 to 100 nM.
Regarding `CC1=C[C@]23C(=O)[C@@H](C=C(CO)[C@@H](O)[C@]2(O)[C@H]1Oc1cc(C(F)(F)F)ccn1)[C@H]1[C@@H](C[C@H]3C)C1(C)C` [Compound 113, 3-O-(4-(Trifluoromethyl)-2-pyridyl)-ingenol], the figures for the EC50 (in experiment [1]; in the experiment on HeLa cells; in experiment [2]) were 20 to 100 nM, 150 to 350 µM and 20 to 100 nM, respectively.
For the compound `CC1=C[C@]23C(=O)[C@@H](C=C(CO)[C@@H](O)[C@]2(O)[C@H]1Oc1nccc(C(F)(F)F)n1)[C@H]1[C@@H](C[C@H]3C)C1(C)C` [Compound 114, 3-O-(4-(Trifluoromethyl)-pyrimidin-2-yl)-ingenol], the EC50 in experiment [1] is at least 100 nM; with HeLa cells, at least 350 µM; in experiment [2], at least 100 nM.
`CC1=C[C@]23C(=O)[C@@H](C=C(CO)[C@@H](O)[C@]2(O)[C@H]1Oc1ncccc1Cl)[C@H]1[C@@H](C[C@H]3C)C1(C)C` [Compound 115, 3-O-(3-Chloro-2-pyridyl)-ingenol]: the EC50 in experiment [1] is 20 to 100 nM; with HeLa cells it was 150 to 350 µM; in experiment [2] it was 20 to 100 nM.
Consider `CC1=C[C@]23C(=O)[C@@H](C=C(CO)[C@@H](O)[C@]2(O)[C@H]1Oc1ncccc1C#N)[C@H]1[C@@H](C[C@H]3C)C1(C)C` [Compound 116, 3-O-(3-Cyano-2-pyridyl)-ingenol], for which the 50% effective concentration (EC50) in experiment [1] is at least 100 nM; in the experiment with HeLa cells, at least 350 µM; in experiment [2], 20 to 100 nM.
Turning to `CC1=C[C@]23C(=O)[C@@H](C=C(CO)[C@@H](O)[C@]2(O)[C@H]1Oc1nccn1CC(F)F)[C@H]1[C@@H](C[C@H]3C)C1(C)C` [Compound 121, 3-O-(1-(2,2-Difluoroethyl)imidazol-2-yl)-ingenol], the EC50 in experiment [1] was at least 100 nM; in experiment [2], 20 to 100 nM.
For the compound `CC1=C[C@]23C(=O)[C@@H](C=C(CO)[C@@H](O)[C@]2(O)[C@H]1Oc1nccn1CCF)[C@H]1[C@@H](C[C@H]3C)C1(C)C` [Compound 122, 3-O-(1-(2-Fluoroethyl)imidazol-2-yl)-ingenol], the EC50 in experiment [1] and in experiment [2] was at least 100 nM throughout.
For the compound `CC1=C[C@]23C(=O)[C@@H](C=C(CO)[C@@H](O)[C@]2(O)[C@H]1Oc1nccc2occc12)[C@H]1[C@@H](C[C@H]3C)C1(C)C` [Compound 126, 3-O-(Furo[3,2-c]pyridine-4-yl)-ingenol], the EC50 is 150 to 350 µM in the experiment on HeLa cells and 20 to 100 nM in experiment [2].
